pIC50: −log10 of the molar value.
Assays:
Tyk2-JH1JH2 = Tyk2-JH1JH2 (Homo sapiens (Human), UniProt P29597, C1142A/C936A); assay: Enzymatic inhibition assay (RapidFire HTMS), Tyk2; assay type: biochemical; conditions: 50 μM ATP, 200 μM substrate
Procedure, shortened: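 Compounds were tested in duplicate as 11-point 1:3 or 1:4 DMSO dilutions (≤0.25% DMSO final) in 20 μL reactions at 25 °C for 90 min, with Tyk2 pre-incubated 30 min with 2 mM ATP. Reactions were quenched with TFA plus internal standard peptide, and phosphorylated product was quantified by RapidFire C4 SPE–ESI MS.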

JAK3-JH1JH2 = JAK3-JH1JH2 (Homo sapiens (Human), UniProt P52333); assay: Enzymatic inhibition assay (RapidFire HTMS), JAK3; assay type: biochemical; conditions: 150 μM ATP, 40 μM substrate
Procedure, shortened: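 Compounds tested in duplicate over 11-point 1:3 or 1:4 dilution series; no-enzyme wells as negative control. After 45 min at 25 °C, TFA quench with internal standard, and phosphorylated product quantified by RapidFire–QTrap mass spectrometry relative to the uninhibited reaction.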

[1] = In vivo intracolonic (i.c.) dosing: plasma and colon tissue concentrations (Protocol 3); set-up: species or system female C57BL/6 mice; conditions: mice; for concentration at 4 h: colon, read-out: Colon Concentration After i.c. Dosing, Mean
Text: Plasma and colon concentration results were obtained by following Protocol 1 using venipuncture of dorsal metatarsal vein bleed for Compounds (B), (C), and Examples 10 and 74. Plasma and colon concentration results were obtained by following Protocol 2 using retro-orbital bleed for Compounds (A), and Examples 1, and 3-5 and Protocol 2 using venipuncture of the dorsal metatarsal vein for Examples 2, 22, 34, 38, 55, and 85. Plasma and colon concentration results were obtained by following Protocol 3 for Examples 1, 3 and 4. These protocols are described below under the heading In vivo Studies.
Intracolonic (IC) dose group: Following anesthesia with isoflurane by inhalation, three non-fasted female C57BL/6 mice were administered the compound intracolonically through a small incision in the abdominal wall using a syringe and needle at a dose of 5 mg/kg as a solution in 20% HPβCD at a dose volume of 1 mL/kg. Blood samples were collected at 0.5, 2, and 4 h post dose via retro-orbital bleed. Blood samples were collected into tubes containing anticoagulant (Heparin-Na) and placed on wet ice. The plasma fraction was separated by centrifugation and frozen at −20° C. for up to 4 h and −80° C. after 4 h unless analyzed shortly after sample collection. Colon samples were collected at 4 h post dose. From 2 cm below the cecum, a 4-cm sample of the colon was dissected, cut open on the longitudinal axis, and the solid contents removed by flushing with 2 mL of saline. The colon was further washed by putting it in 5 mL of saline and shaken for 5 seconds. The colon sample was then patted dry, weighed, and homogenized as 1 part tissue (g) to 4 parts HPLC grade water (mL). Concentrations of the compound in plasma and colon homogenate were determined using a qualified liquid chromatography-triple quadrupole mass spectrometry (LC-MS/MS) method. This protocol was used to evaluate IC dosing of the following test compounds: Examples 1, 3, and 4.

JAK1-JH1JH2 = JAK1-JH1JH2 (Homo sapiens (Human), UniProt P23458); assay: Enzymatic inhibition assay (RapidFire HTMS), JAK1; assay type: biochemical; conditions: 12.5 μM ATP, 200 μM substrate; read-out: JAK1-JH2JH1 IC50
Procedure, shortened: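 Quenched with 0.5% TFA plus internal-standard peptide; phosphorylated product quantified by RapidFire C4 SPE–ESI-MS, 11-point 1:3 or 1:4 dilutions in duplicate.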

[2] = female, C57BL/6, mouse, other: intracolonic (i.c.), 5 mg/kg i.c.
[3] = female, C57BL/6, mouse, plasma, other: intracolonic (i.c.), 5 mg/kg i.c., read-out: Plasma Concentration After i.c. Dosing, Mean

Tyk2-JH1JH2, sequence (P29597 580-1182 C936A/C1142A): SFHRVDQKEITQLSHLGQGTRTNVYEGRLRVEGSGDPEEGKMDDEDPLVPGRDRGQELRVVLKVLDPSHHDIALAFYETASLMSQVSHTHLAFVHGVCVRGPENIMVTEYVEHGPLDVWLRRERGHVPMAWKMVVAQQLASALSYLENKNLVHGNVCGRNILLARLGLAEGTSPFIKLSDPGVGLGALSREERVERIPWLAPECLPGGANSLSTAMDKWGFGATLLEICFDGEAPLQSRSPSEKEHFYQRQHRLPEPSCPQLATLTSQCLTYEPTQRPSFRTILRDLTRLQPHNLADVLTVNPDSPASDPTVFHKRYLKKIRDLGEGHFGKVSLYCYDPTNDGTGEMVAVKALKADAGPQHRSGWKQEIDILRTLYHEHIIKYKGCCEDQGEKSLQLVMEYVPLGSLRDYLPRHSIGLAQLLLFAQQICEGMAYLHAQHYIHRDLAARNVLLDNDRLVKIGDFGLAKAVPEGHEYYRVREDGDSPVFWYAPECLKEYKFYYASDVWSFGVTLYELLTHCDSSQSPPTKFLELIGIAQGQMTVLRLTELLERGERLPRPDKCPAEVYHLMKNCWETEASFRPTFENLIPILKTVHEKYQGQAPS
JAK3-JH1JH2, sequence (P52333 512-1124): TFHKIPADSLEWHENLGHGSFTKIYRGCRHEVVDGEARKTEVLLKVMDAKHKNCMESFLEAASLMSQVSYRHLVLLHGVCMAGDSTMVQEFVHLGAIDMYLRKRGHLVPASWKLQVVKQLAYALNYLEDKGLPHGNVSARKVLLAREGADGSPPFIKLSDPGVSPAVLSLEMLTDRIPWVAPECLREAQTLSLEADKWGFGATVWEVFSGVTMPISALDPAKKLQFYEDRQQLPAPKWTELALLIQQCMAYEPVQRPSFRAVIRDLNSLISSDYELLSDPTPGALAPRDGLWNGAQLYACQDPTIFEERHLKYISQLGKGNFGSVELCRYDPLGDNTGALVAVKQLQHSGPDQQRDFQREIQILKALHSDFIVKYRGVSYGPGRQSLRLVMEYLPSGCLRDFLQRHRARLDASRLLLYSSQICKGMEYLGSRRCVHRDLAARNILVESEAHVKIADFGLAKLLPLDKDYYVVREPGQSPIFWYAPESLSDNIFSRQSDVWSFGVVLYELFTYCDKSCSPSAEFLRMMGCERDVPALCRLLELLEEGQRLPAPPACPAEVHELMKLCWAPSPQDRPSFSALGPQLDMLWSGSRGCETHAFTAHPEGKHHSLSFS
JAK1-JH1JH2, sequence (P23458 574-1154): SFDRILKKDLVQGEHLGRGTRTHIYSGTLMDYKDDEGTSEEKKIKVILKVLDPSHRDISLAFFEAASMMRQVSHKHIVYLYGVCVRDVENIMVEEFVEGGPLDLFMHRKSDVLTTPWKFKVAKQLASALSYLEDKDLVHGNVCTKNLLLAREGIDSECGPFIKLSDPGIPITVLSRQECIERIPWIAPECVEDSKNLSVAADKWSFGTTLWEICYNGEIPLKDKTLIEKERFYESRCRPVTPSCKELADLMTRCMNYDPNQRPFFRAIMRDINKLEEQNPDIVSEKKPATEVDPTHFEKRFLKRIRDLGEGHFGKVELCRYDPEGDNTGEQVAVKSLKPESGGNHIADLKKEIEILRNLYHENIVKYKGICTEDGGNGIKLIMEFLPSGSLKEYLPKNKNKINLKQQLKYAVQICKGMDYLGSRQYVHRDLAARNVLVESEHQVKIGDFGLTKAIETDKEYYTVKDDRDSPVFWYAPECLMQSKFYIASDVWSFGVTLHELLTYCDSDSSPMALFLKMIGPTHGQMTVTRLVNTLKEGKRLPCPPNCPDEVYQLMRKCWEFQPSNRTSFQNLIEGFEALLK

Row | Compound | pIC50 (Tyk2-JH1JH2) | pIC50 (JAK3-JH1JH2) | concentration at 4 h [1, 2] [ng/g] | concentration at 0.5 h [1, 3] [ng/mL] | systemic exposures after i.c. dosing [1] | pIC50 (JAK1-JH1JH2) | concentration at 2 h ([1]; female, C57BL/6, mouse, plasma, other: intracolonic (i.c.), 5 mg/kg i.c., Time = 2 h, read-out: Plasma Concentration After i.c. Dosing, Mean) [ng/mL]
1 | CC(C)(O)CNC(=O)Cc1nc2cnc3[nH]ccc3c2n1[C@H]1CC[C@H](CC#N)CC1 [Ex. 1, 2-(1-((1r,4r)-4-(Cyanomethyl)cyclohexyl)-1,6-dihydroimidazo[4,5-d]pyrrolo[2,3-b]pyridin-2-yl)-N-(2-hydroxy-2-methylpropyl)acetamide] | 8.16 | 7.06 | 681 | 2.5 | low systemic exposures | 9.52 | 
2 | N#CC[C@H]1CC[C@H](n2c(CC(=O)NCC3CC3)nc3cnc4[nH]ccc4c32)CC1 [Ex. 3, 2-(1-((1r,4r)-4-(Cyanomethyl)cyclohexyl)-1,6-dihydroimidazo[4,5-d]pyrrolo[2,3-b]pyridin-2-yl)-N-(cyclopropylmethyl)acetamide] |  |  | 228 | 1.5 | low systemic exposures |  | 
3 | N#CCCNC(=O)Cc1nc2cnc3[nH]ccc3c2n1[C@H]1CC[C@H](CC#N)CC1 [Ex. 4, N-(2-Cyanoethyl)-2-(1-((1r,4r)-4-(cyanomethyl)cyclohexyl)-1,6-dihydroimidazo[4,5-d]pyrrolo[2,3-b]pyridin-2-yl)acetamide] |  |  | 26.1 | 3.8 | low systemic exposures |  | 2.5
4 | CC(C)(C#N)CNC(=O)Cc1nc2cnc3[nH]ccc3c2n1[C@H]1CC[C@H](CC#N)CC1 [Ex. 22, N-(2-Cyano-2-methylpropyl)-2-(1-((1r,4r)-4-(cyanomethyl)cyclohexyl)-1,6-dihydroimidazo[4,5-d]pyrrolo[2,3-b]pyridin-2-yl)acetamide] | 8.39 | 7.03 |  |  |  | 10.00 | 
5 | N#CC[C@H]1CC[C@H](n2c(CC(=O)NCC3(O)CCC3)nc3cnc4[nH]ccc4c32)CC1 [Ex. 34, 2-(1-((1r,4r)-4-(Cyanomethyl)cyclohexyl)-1,6-dihydroimidazo[4,5-d]pyrrolo[2,3-b]pyridin-2-yl)-N-((1-hydroxycyclobutyl)methyl)acetamide] | 8.51 | 7.37 |  |  |  | 9.70 | 
6 | N#CCC12CCC(NC(=O)Cc3nc4cnc5[nH]ccc5c4n3[C@H]3CC[C@H](CC#N)CC3)(CC1)C2 [Ex. 55, N-(4-(Cyanomethyl)bicyclo[2.2.1]heptan-1-yl)-2-(1-((1r,4r)-4-(cyanomethyl)cyclohexyl)-1,6-dihydroimidazo[4,5-d]pyrrolo[2,3-b]pyridin-2-yl)acetamide] | 8.33 | 7.22 |  |  |  | 9.70 | 
7 | N#CC[C@H]1CC[C@H](n2c(CC(=O)NCC3(O)CC3)nc3cnc4[nH]ccc4c32)CC1 [Ex. 85, 2-(1-((1r,4r)-4-(Cyanomethyl)cyclohexyl)-1,6-dihydroimidazo[4,5-d]pyrrolo[2,3-b]pyridin-2-yl)-N-((1-hydroxycyclopropyl)methyl)acetamide] | 8.27 | 7.17 |  |  |  | 9.40 | 
